Values joined by “and” are separate entries in the source; they are usually repeats but may differ in a detail not shown here. Equal entries are not always repeated. Marks after values point to notes of the source that are not given here.
Experiments:
[1] = test system: IFN-γ production by spleen cells; assay: In vitro OVA-stimulated IFN-γ production by spleen cells from OVA-sensitized mice; assay type: cell-based, mouse; conditions: for Amount of IFN-γ: Table 15, OVA-stimulated IFN-γ production, spleen cells, 96 hours, ELISA
Protocol: (§1) OVA-sensitized animals were prepared in accordance with the method of Nagai et al. (the method described in Example 2). Specifically, 0.5 ml of physiological saline containing 50 μg of OVA and 1 mg of aluminum hydroxide gel as adjuvant was injected twice at 12 day interval into the abdominal cavity of each of male Balb/c mice of 7 weeks of age for active sensitization. After 22, 26 and 30 days of the initial sensitization, each animal was forced to inhale 1% OVA solution for 30 minutes using an ultrasonic nebulizer. After 8 hours of the final antigen inhalation, the spleen was collected to prepare spleen cells. The spleen cells were cultured for 96 hours in the presence of 1 mg/ml of OVA, and the cytokine released in the culture supernatant was determined by ELISA method. Each of the compounds to be tested was added to a final concentration of 0.3, 1, 3, 10 or 30 μM simultaneously with OVA.

[2] = test system: IL-2 production by spleen cells; assay: In vitro OVA-stimulated IL-2 production by spleen cells from OVA-sensitized mice; assay type: cell-based, mouse; conditions: for Amount of IL-2: spleen cells, 1 mg/ml OVA, 96 hours, ELISA
Protocol: as §1

[3] = test system: eosinophils infiltration in BALF; assay: BALF eosinophils infiltration in mouse allergic airway inflammation model; assay type: in vivo
Protocol: (§2) The test was carried out in accordance with the method of Nagai et al. (see H. Nagai, H. Takeda, S. Yamaguchi, H. Tanaka, A. Matsuo and N. Inagaki, “The effect of thromboxane A2 receptor antagonist BAY-u-3405 on experimental allergic reactions”, Prostaglandins, 50, 75-87, 1995). Specifically, 0.5 ml of physiological saline containing 50 μg of OVA and 1 mg of aluminum hydroxide gel as adjuvant was injected twice at 12 day interval into the abdominal cavity of each of male Balb/c mice of 7 weeks of age for active sensitization. After 22, 26 and 30 days of the initial sensitization, each animal was forced to inhale 1% OVA solution for 30 minutes using an ultrasonic nebulizer to prepare a mouse allergic airway inflammation model. Total blood and BALF were collected 8 hours after the final antigen inhalation. The collected blood was allowed to stand overnight at room temperature, and then centrifuged at 300 rpm for 15 minutes, and the light yellow transparent fraction separated into the supematant was used as an antiserum. The IgE antibody titer in the antiserum was measured by 24 hours' heterogeneous (rat) PCA. On the other hand, the collected BALF supernatant was used as a sample for cytokine measurement, and the cell pellets after preparation were counted as an index of the infiltration of inflammatory cells. Each compound to be tested was continuously administered 5 days starting from the day before each sensitization and 10 days starting from the day before inhalation, at a dose of 10, 30 or 100 mg/kg in the case of oral administration or 10 mg/kg in the case of intraperitoneal or intravenous injection. Results of the measurement of IgE antibody titer in serum and amount of IL-5 and the number of eosinophils in BALF are shown in Tables 10, 11 and 12, respectively. The treatments in each group shown in each table are as follows.
(§3) Physiological saline: physiological saline stimulation+vehicle administration
(§4) Control: OVA stimulation+vehicle administration
(§5) Compound (1): OVA stimulation+Compound (1) administration

[4] = test system: IgE antibody production; assay: Serum IgE antibody production in mouse allergic airway inflammation model; assay type: in vivo; conditions: 24 hours' heterogeneous (rat) PCA
Protocol: as §2, §3, §4, §5

[5] = test system: IL-4 production by spleen cells; assay: In vitro OVA-stimulated IL-4 production by spleen cells from OVA-sensitized mice; assay type: cell-based, mouse; conditions: for Amount of IL-4: Table 16, OVA-stimulated IL-4 production, spleen cells, 96 hours, ELISA
Protocol: as §1

[6] = test system: IL-5 production in BALF; assay: BALF IL-5 production in mouse allergic airway inflammation model; assay type: in vivo
Protocol: as §2, §3, §4, §5

[7] = test system: Compound 48/80-induced scratching behavior; assay: Mouse Compound 48/80-induced itch model; assay type: in vivo; conditions: for The number of times of scratching: 20 minutes after injection of Compound 48/80
Protocol: This test was carried out in accordance with the method of Kubo et al. (Michinori Kubo, Hideaki Matsuda, Takeshi Itadaki, Yasuko Ido and Masayuki Yoshikawa, Studies on herb medicine and jifushi (first report), Anti-itching activity of 70% ethanol extract of jifushi and screening of effective component, Journal of the Pharmaceutical Society of Japan, 117(4), 193-201, 1997). Specifically, 0.1 ml of physiological saline containing Compound 48/80 (manufactured by Sigma Chemical Company) (100 μg) was administered subcutaneously into the dorsal part of each male ddy mouse of 6 to 7 weeks of age to induce scratching behavior. The scratching behavior was judged by measuring the number of times of scratching for 20 minutes immediately after the injection, by setting the behavior of each mouse to scratch the injected part with a hind leg for 1 second or more as one. Each compound to be tested was administered intravenously 1 hour before the induction.

[8] = test system: SD rats; assay: Acute toxicity LD50, intravenous injection; assay type: in vivo, rat
Protocol: The toxicity of the compounds of the present invention of the formula (I) is very low and therefore, the compounds may be considered safe for pharmaceutical use. For example, LD50 of 2-deoxy-2-[3S-(9-phenylnonanoyloxy)tetradecanoyl]-amino-3-O-(9-phenylnonanoyl)-4-O-sulfo-D-glucopyranose sodium salt (The compound (1) described hereinafter) is 60-70 mg/kg on SD rats were administrated by intravenous injection.

[9] = test system: DNFB-induced mouse ear edema; assay: DNFB-induced mouse ear edema; assay type: in vivo; conditions: for Increasing ratio of auricle thickness: 1 hour after reaction induction
Protocol: Anti-DNP-IgE antibody (3 μg/body) was administered from the caudal vein of each of female Balb/c mice of 7 weeks of age, and the reaction was induced by applying 25 μl of a 0.15% DNFB-containing acetone:olive oil (3:1) mixed solution (hereinafter referred to as “antigen”) to each of both sides of the left and right auricles 24 hours after the administration. Each compound to be tested was administered orally or intravenously 1 hour before the reaction induction. Before the reaction induction and 1 hour after the reaction induction, auricle thickness was measured using a dial sickness gage, and the average value of the left and right auricle thicknesses was used as the measured value at respective time. The value was shown by the increasing ratio of the auricle thickness from before the reaction induction. In Table 9, treatments in each group are as follows.
Vehicle: anti-DNP-IgE antibody administration+vehicle application+vehicle administration
Control: anti-DNP-IgE antibody administration+antigen application+vehicle administration
Compound (1): anti-DNP-IgE antibody administration+antigen application+Compound (1) administration

[10] = 0.3 to 30 μM, spleen cells from OVA-sensitized mice

## CCCCCCCCCCC[C@@H](CC(=O)N[C@H]1C(O)O[C@H](CO)[C@@H](OS(=O)(=O)[O-])[C@@H]1OC(=O)CCCCCCCCc1ccccc1)OC(=O)CCCCCCCCc1ccccc1.[Na+] (stereo partly drawn) [Compound (1), 2-deoxy-2-[3S-(9-phenylnonanoyloxy)tetradecanoyl]amino-3-O-(9-phenylnonanoyl)-4-O-sulfo-D-glucopyranose sodium]
[1]; [10]
  Effect on in vitro OVA-stimulated IFN-γ production: significantly inhibited
[1]; 0.3 μM
  Amount of IFN-γ: 1462.9 ± 202.8 pg/mL
[1]; 1 μM
  Amount of IFN-γ: 658.1 ± 66.6 pg/mL
[1]; 3 μM
  Amount of IFN-γ: 457.6 ± 51.0 pg/mL
[1]; 10 μM
  Amount of IFN-γ: 349.7 ± 81.0 pg/mL
[1]; 30 μM
  Amount of IFN-γ: 160.5 ± 42.9 pg/mL
[2]; 0.3 μM
  Amount of IL-2: 48.4 ± 3.0 pg/mL
[2]; 1 μM
  Amount of IL-2: 36.1 ± 5.0 pg/mL
[2]; 3 μM
  Amount of IL-2: 22.9 ± 2.9 pg/mL
[2]; 10 μM
  Amount of IL-2: 11.7 ± 2.2 pg/mL
[2]; 30 μM
  Amount of IL-2: 4.3 ± 1.7 pg/mL
[2]; [10]
  Effect on in vitro OVA-stimulated IL-2 production: significantly inhibited
[3]; 10 mg/kg i.p.
  The number of eosinophils in BALF: 0.0 ± 0.0*^b × 10^5 cells/BALF
[3]; 10 mg/kg i.v.
  The number of eosinophils in BALF: 0.1 ± 0.0*^b × 10^5 cells/BALF
[3]; 10 mg/kg p.o.
  The number of eosinophils in BALF: 1.4 ± 0.4 × 10^5 cells/BALF
[3]; 30 mg/kg p.o.
  The number of eosinophils in BALF: 0.7 ± 0.2 × 10^5 cells/BALF
[3]; 100 mg/kg p.o.
  The number of eosinophils in BALF: 0.3 ± 0.1 × 10^5 cells/BALF
[4]; 10 mg/kg i.p.
  Serum IgE antibody titer: 69.3 ± 17.6***^b
[4]; 10 mg/kg i.v.
  Serum IgE antibody titer: 20.0 ± 3.7***^b
[4]; 10 mg/kg p.o.
  Serum IgE antibody titer: 304.0 ± 68.2
[4]; 30 mg/kg p.o.
  Serum IgE antibody titer: 176.0 ± 35.2
[4]; 100 mg/kg p.o.
  Serum IgE antibody titer: 120.0 ± 30.1
[5]; 3 to 30 μM, spleen cells from OVA-sensitized mice
  Effect on in vitro OVA-stimulated IL-4 production: significantly inhibited
[5]; 0.3 μM
  Amount of IL-4: 253.0 ± 45.9 pg/mL
[5]; 1 μM
  Amount of IL-4: 203.3 ± 37.3 pg/mL
[5]; 3 μM
  Amount of IL-4: 139.0 ± 19.3 pg/mL
[5]; 10 μM
  Amount of IL-4: 67.9 ± 8.1 pg/mL
[5]; 30 μM
  Amount of IL-4: 12.8 ± 1.1 pg/mL
[6]; 10 mg/kg i.p.
  Amount of IL-5 in BALF: 9.2 ± 1.5**^b pg/BALF
[6]; 10 mg/kg i.v.
  Amount of IL-5 in BALF: 16.2 ± 3.8**^b pg/BALF
[6]; 10 mg/kg p.o.
  Amount of IL-5 in BALF: 65.1 ± 15.9 pg/BALF
[6]; 30 mg/kg p.o.
  Amount of IL-5 in BALF: 50.8 ± 13.7 pg/BALF
[6]; 100 mg/kg p.o.
  Amount of IL-5 in BALF: 26.7 ± 7.5 pg/BALF
[7]; 1 mg/kg intravenously
  The number of times of scratching: 68.6 ± 18.8
[7]; 3 mg/kg intravenously
  The number of times of scratching: 61.3 ± 9.9
[7]; 10 mg/kg intravenously
  The number of times of scratching: 26.8 ± 16.8
[7]; 30 mg/kg intravenously
  The number of times of scratching: 6.3 ± 4.4
[7]; 10 or 30 mg/kg intravenously
  Effect on scratching behavior: significantly reduced scratching behavior
[8]
  LD50: 60 to 70 mg/kg
[9]; 10 mg/kg i.v.
  Increasing ratio of auricle thickness: 16.4 ± 1.9%
[9]; 10 mg/kg p.o.
  Increasing ratio of auricle thickness: 14.3 ± 1.8%
[9]; 40 mg/kg oral administration, versus control
  Inhibition of increase in the auricle thickness: 45%
[9]; 40 mg/kg p.o.
  Increasing ratio of auricle thickness: 10.2% and 10.2 ± 1.6 %

From US6495678B1, “Immunosuppressant containing glucopyranose derivative as active ingredient” (Ono Pharmaceutical Co., Ltd., priority 1998, dated 2002)
